Measurements from patent US20230106506A1, “NOVEL PqsR INVERSE AGONISTS” (Helmholtz-Zentrum Fur Infektionsforschung GmbH, priority 2020, published 2023).
Where two headings read alike, the source gives them in different places.

Columns and labels:
[1] = test system: production of signal molecules HHQ and PQS; conditions: cited from earlier work
[2] = test system: P. aeruginosa pyocyanin production; conditions: in cellulo, literature value; read-out: inhibition of virulence factor pyocyanin production: IC50; cited from earlier work
[3] = Kinetic turbidimetric aqueous solubility; format: physicochemical; conditions: aqueous buffer, kinetic from dmso stock; PBS buffer, final DMSO 2%, absorbance 620 nm; read-out: Kinetic Turbidimetric Aqueous Solubility at room temperature for 5 min
Description: Kinetic Turbidimetric Aqueous Solubility at room temperature for 5 min. […] Data was analyzed by fitting a four parameter sigmoidal function to the measured and normalized absorbances and AUC calculation providing access to Log S (decadic logarithm of the solubility).

[4] = Metabolic stability in mouse liver microsomes (MLM); format: in vitro ADME; conditions: 1 μM compound, 0.5 mg/mL MLM, 1 mM NADPH, 37° C., read-out: half-life (t1/2) towards MLM
In short: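 Phase I stability: 1 μM compound incubated at 37° C with 0.5 mg/mL mouse liver microsomes and 1 mM NADPH, sampled at 0-30 min and quenched in acetonitrile. Remaining parent measured by HPLC-MS/MS to derive half-life.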

PqsR = molecular target: T1, PqsR (Pseudomonas aeruginosa, UniProt Q9I4X0); experiment: PqsR reporter gene assay in E. coli (β-galactosidase); format: cell-based
T1 construct: transfected with pEAL08-2 plasmid encoding pqsR under control of promoter tac; expressed in transfected cells; host or cells: Escherichia coli DH5alpha carrying pEAL08-2
Description: Inhibition of pqsR-dependent gene expression of test compounds was determined in an E. coli based β-galactosidase reporter gene assay. Escherichia coli DH5α was transfected with pEAL08-2 plasmid encoding pqsR under control of promoter tac and β-galactosidase reporter gene lacZ under control of promoter pqsA. Antagonistic effects of compounds were evaluated in the presence of/in competition to 50 nM PQS. A positive control was used to ensure the reliability of individual assays. First, PQS was diluted in methanol and added to the wells of a glass coated 96-deep-well plate, and the solvent was evaporated. Then, compounds were added in 5 μL DMSO to final concentrations of 0.001-10 μM. Overnight cultures of E. coli DH5a×pEAL08-2 were diluted 1:100 in LB medium with ampicillin (50 μg/ml) and incubated at 37° C. with shaking until it reached an OD600 of 0.2. Finally, 995 μL of culture was added to each well and the β-galactosidase activity was determined by ortho-nitrophenyl-β-galactoside conversion in permeabilized cells after a 2.5 h incubation period (37° C., 180 rpm). OD600, OD420, and OD550 were measured using POLARstar Omega (BMG Labtech, Ortenberg, Germany), and the activity was expressed as ratio of the slope of β-galactosidase activity between basal control (no PQS) and solvent control, IC50 values of antagonists were determined by variation of the concentration of the test compounds.

[5] = test system: P. aeruginosa pyocyanin production; experiment: Pyocyanin assay; format: cell-based, P. aeruginosa strain PA14; conditions: Pseudomonas aeruginosa, PA14, 16 h, read-out: IC50-value towards pyocyanin production
In short: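 PA14 washed overnight culture in PPGAS diluted to OD600 0.02, grown 16 h with compound (37 °C, 200 rpm, 75% RH). Pyocyanin extracted with chloroform, back-extracted into 0.2 M HCl. OD520 measured and normalised to OD600.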

[6] = test system: virulence factor elastase; conditions: cited from earlier work

T1 sequence (Q9I4X0 whole entry): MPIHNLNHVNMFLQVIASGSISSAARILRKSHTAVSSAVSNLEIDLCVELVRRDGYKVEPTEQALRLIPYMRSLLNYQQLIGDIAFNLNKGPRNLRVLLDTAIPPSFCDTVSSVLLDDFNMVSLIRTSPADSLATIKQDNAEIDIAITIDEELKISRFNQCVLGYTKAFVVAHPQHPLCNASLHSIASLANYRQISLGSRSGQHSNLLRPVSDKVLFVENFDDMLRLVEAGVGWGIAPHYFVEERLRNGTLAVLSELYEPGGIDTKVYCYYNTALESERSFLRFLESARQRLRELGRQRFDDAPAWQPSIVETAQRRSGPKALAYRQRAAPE

SMILES | reduction of HHQ production ([1]; at 15 μM) [%] | reduction of PQS production ([1]; at 15 μM) [%] | IC50 [2] [µM] | IC50 ([1]; QS inhibitor targeting the enzyme PqsA) [µM] | solubility at 5 min [3] [µM] | half-life at 1 µM [4] [h] | IC50 (PqsR) [µM] | IC50 [5] [µM] | inhibition of PQS formation, active concentration [1] | inhibition of production of the virulence factor elastase, active concentration [6]
CCCCCCCc1[nH]c2ccc([N+](=O)[O-])cc2c(=O)c1C(N)=O [2-heptyl-6-nitro-4-oxo-1,4-dihydroquinoline-3-carboxamide] | 54 | 37 | 2 |  |  |  |  |  |  | 
Nc1cccc(F)c1C(=O)O [Compound 6FABA] |  |  |  | ~100 |  |  |  |  |  | 
CC(C)Oc1ccc(-n2cc(CNc3cc(-c4cn[nH]c4)nc(C(F)(F)F)c3)nn2)cc1Cl [Compound 07, N-((1-(3-Chloro-4-isopropoxyphenyl)-1H-1,2,3-triazol-4-yl)methyl)-2-(1H-pyrazol-4-yl)-6-(trifluoromethyl)pyridin-4-amine] |  |  |  |  | > 25 | 0.5 to 1 | ≤ 0.05 | ≤ 0.1 |  | 
Cn1cc(-c2cc(NCc3cn(-c4ccc(Oc5ccccc5)cc4)nn3)cc(C(F)(F)F)n2)cn1 [Compound 10, 2-(1-Methyl-1H-pyrazol-4-yl)-N-((1-(4-phenoxyphenyl)-1H-1,2,3-triazol-4-yl)methyl)-6-(trifluoromethyl)pyridin-4-amine] |  |  |  |  | > 25 | 0.5 to 1 | ≤ 0.05 | 0.201 to 0.5 |  | 
CC(C)Oc1ccc(-c2ncc(CNc3cc(-c4cn[nH]c4)nc(C(F)(F)F)c3)s2)cc1 [Compound 11, N-((2-(4-Isopropoxyphenyl)thiazol-5-yl)methyl)-2-(1H-pyrazol-4-yl)-6-(trifluoromethyl)pyridin-4-amine] |  |  |  |  | > 10 | 0.5 to 1 | ≤ 0.05 | ≤ 0.1 |  | 
CC(C)Oc1ccc(-c2ncc(CNc3cc(C#N)nc(-c4cn[nH]c4)c3)s2)cc1 [Compound 12, 4-(((2-(4-Isopropoxyphenyl)thiazol-5 yl)methyl)amino)-6-(1H-pyrazol-4-yl)picolinonitrile] |  |  |  |  | > 10 | 0.5 to 1 | ≤ 0.05 | ≤ 0.1 |  | 
CC(C)Oc1ccc(-c2ncc(CNc3cc(-c4cnn(C)c4)nc(C(F)(F)F)c3)s2)cc1 [Compound 13, N-((2-(4-Isopropoxyphenyl)thiazol-5-yl)methyl)-2-(1-methyl-1H-pyrazol-4-yl)-6-(trifluoromethyl)pyridin-4-amine] |  |  |  |  | > 10 | 0.5 to 1 | 0.051 to 0.25 | 0.201 to 0.5 |  | 
CC(C)Oc1ccc(-c2ncc(CNc3cc(-c4cc[nH]n4)nc(C(F)(F)F)c3)s2)cc1 [Compound 14, N-((2-(4-Isopropoxyphenyl)thiazol-5-yl)methyl)-2-(1H-pyrazol-3-yl)-6-(trifluoromethyl)pyridin-4-amine] |  |  |  |  | > 10 | > 1.67 | 0.051 to 0.25 | 0.201 to 0.5 |  | 
CC(C)Oc1ccc(-c2ncc(CNc3cc(-n4ccnc4)nc(C(F)(F)F)c3)s2)cc1 [Compound 15, 2-(1H-Imidazol-1-yl)-N-((2-(4-isopropoxyphenyl)thiazol-5-yl)methyl)-6-(trifluoromethyl)pyridin-4-amine] |  |  |  |  | > 10 | 0.5 to 1 | ≤ 0.05 | ≤ 0.1 |  | 
CC(C)Oc1ccc(-c2ncc(CNc3cc(-n4cncn4)nc(C(F)(F)F)c3)s2)cc1 [Compound 17, N-((2-(4-Isopropoxyphenyl)thiazol-5-yl)methyl)-2-(1H-1,2,4-triazol-1-yl)-6-(trifluoromethyl)pyridin-4-amine] |  |  |  |  | > 50 | 1.02 to 1.67 | 0.051 to 0.25 | ≤ 0.1 |  | 
CC(C)Oc1ccc(-c2ncc(CNc3cc(-c4cn[nH]c4)nc(C(F)(F)F)c3)cn2)cc1Cl [Compound 48, N-((2-(3-Chloro-4-isopropoxyphenyl)pyrimidin-5-yl)methyl)-2-(1H-pyrazol-4-yl)-6-(trifluoromethyl)pyridin-4-amine] |  |  |  |  | > 25 | > 1.67 | ≤ 0.05 | 0.101 to 0.2 |  | 
COC(=O)c1ccccc1N [methyl anthranilate] |  |  |  |  |  |  |  |  | millimolar concentrations | millimolar concentrations
